Consider one molecule from PMC4710668, “Bioactivation of food genotoxicants 5-hydroxymethylfurfural and furfuryl alcohol by sulfotransferases from human, mouse and rat: a comparative study” (Archives of Toxicology, 2014).

Holding throughout (test): HMF sulfoconjugation assay
Common to all, as to format: biochemical

The target of one assay is T1, hSULT1A3 (Homo sapiens, UniProt P0DMM9).
T1 construct: made in house; host or cells: Salmonella typhimurium TA1538 (cytosolic fraction, not purified)
The procedure, abridged:
(§1)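 SULT cytosol from TA1538, 25–200 µg protein; KPi 50 mM pH 7.4, MgCl2 5 mM, PAPS 50 µM; HMF varied; 37 °C, 30 min; stop with ice-cold 2-propanol; SMF by UPLC-MS/MS, LOD 0.5 pmol SMF/mg/min.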

A further assay concerns the target T2, hSULT2A1 (Homo sapiens, UniProt Q06520).
T2 construct: made in house; host or cells: Salmonella typhimurium TA1538 (cytosolic fraction, not purified)
T2 sequence (Q06520 1-285): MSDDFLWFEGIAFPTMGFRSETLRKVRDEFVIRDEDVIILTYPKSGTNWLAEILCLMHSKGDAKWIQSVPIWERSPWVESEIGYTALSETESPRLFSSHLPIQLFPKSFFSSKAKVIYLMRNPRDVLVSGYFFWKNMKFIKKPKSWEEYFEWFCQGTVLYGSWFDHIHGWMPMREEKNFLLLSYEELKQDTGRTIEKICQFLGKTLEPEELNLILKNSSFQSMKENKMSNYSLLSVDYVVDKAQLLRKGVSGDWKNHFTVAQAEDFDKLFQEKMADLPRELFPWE
The procedure, abridged: as §1

A further assay has as its target T3, mSult1b1 (Mus musculus, UniProt Q9QWG7).
T3 construct: made in house; host or cells: Salmonella typhimurium TA1538 (cytosolic fraction, enzyme not purified)
In short, it runs like this: as §1

The target in the next assay is T4, mSult2b1b (Mus musculus, UniProt O35400).
T4 construct: made in house; host or cells: Salmonella typhimurium TA1538 (cytosolic fraction, enzyme not purified)
T4 sequence (O35400 1-338): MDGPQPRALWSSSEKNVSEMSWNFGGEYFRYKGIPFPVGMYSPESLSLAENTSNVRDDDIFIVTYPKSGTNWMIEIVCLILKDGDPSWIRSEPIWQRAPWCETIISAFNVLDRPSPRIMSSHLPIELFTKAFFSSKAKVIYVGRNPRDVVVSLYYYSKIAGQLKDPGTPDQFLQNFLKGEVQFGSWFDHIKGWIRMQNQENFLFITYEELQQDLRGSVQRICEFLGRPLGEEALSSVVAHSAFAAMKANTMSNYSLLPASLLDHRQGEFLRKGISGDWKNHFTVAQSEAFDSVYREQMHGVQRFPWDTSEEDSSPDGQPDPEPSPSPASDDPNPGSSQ
In short, it runs like this: as §1

Another assay deals with T5, rSult1c2 (Rattus norvegicus, UniProt Q9WUW8).
T5 construct: made in house; host or cells: Salmonella typhimurium TA1538 (cytosolic fraction, enzyme not purified)
In short, it runs like this: as §1

The mark [1] stands for this setting: HMF sulfoconjugation, Michaelis-Menten fit.

Structures are written as SMILES.

T3 sequence (Q9QWG7 whole entry): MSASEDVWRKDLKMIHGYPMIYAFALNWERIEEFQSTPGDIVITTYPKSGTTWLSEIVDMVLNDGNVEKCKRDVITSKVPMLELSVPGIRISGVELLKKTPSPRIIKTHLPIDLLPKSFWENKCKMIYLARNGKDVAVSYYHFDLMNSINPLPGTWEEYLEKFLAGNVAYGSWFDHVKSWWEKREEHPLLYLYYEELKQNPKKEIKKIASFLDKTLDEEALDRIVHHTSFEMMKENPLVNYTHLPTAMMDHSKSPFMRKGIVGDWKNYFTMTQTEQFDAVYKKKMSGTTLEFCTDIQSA
T5 sequence (Q9WUW8 whole entry): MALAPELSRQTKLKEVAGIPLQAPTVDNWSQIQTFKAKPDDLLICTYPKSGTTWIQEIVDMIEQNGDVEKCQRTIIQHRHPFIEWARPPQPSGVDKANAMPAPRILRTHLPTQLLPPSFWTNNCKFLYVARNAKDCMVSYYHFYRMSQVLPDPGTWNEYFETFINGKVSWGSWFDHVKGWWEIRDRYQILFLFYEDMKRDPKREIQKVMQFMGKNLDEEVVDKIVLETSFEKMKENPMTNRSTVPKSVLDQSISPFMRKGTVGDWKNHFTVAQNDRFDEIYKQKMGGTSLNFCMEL
T1 sequence (P0DMM9 whole entry): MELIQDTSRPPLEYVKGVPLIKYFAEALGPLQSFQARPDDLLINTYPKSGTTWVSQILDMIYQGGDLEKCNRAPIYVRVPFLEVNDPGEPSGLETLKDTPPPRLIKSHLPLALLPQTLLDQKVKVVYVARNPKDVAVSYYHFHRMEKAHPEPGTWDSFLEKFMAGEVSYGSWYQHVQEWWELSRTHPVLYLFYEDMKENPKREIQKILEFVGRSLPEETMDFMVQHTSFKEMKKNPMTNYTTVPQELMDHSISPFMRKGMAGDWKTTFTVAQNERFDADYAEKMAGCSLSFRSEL

As to `O=Cc1ccc(CO)o1` [HMF, 5-Hydroxymethylfurfural], the Rate of sulfoconjugation is given as 1.2 ± 0.1 pmol/mg/min at hSULT1A3 (0.1 mM HMF); 12.1 ± 1.5 pmol/mg/min at hSULT1A3 (1 mM HMF); 117 ± 12 pmol/mg/min at hSULT1A3 (10 mM HMF); 406 ± 39 pmol/mg/min on hSULT1A3 (100 mM HMF); under 0.5 pmol/mg/min on hSULT2A1 (0.1 mM HMF); 2.4 ± 0.6 pmol/mg/min on hSULT2A1 (1 mM HMF). Also, the Rate of sulfoconjugation at hSULT2A1 (10 mM HMF) amounted to 31.1 ± 5.4 pmol/mg/min; on hSULT2A1 (100 mM HMF), 201 ± 39 pmol/mg/min; at mSult1b1 (0.1 mM HMF) it was 0.9 ± 0.1 pmol/mg/min; on mSult1b1 (1 mM HMF), 8.2 ± 0.1 pmol/mg/min; on mSult1b1 (10 mM HMF), 66.2 ± 6.8 pmol/mg/min; at mSult1b1 (100 mM HMF), 64.4 ± 5.0 pmol/mg/min. The Rate of sulfoconjugation on mSult2b1b (0.1 mM HMF), on mSult2b1b (1 mM HMF), on mSult2b1b (10 mM HMF), at mSult2b1b (100 mM HMF), on rSult1c2 (0.1 mM HMF) and on rSult1c2 (1 mM HMF) was under 0.5 pmol/mg/min throughout. Further, the Rate of sulfoconjugation at rSult1c2 (10 mM HMF) is 2.3 ± 0.2 pmol/mg/min; at rSult1c2 (100 mM HMF), 15.0 ± 1.1 pmol/mg/min. The “K M” value at hSULT1A3 (setting [1]) is on record as 16.7 ± 1.8 mM; on mSult1b1 (setting [1]), 9.5 ± 1.1 mM.
